Test results as given in patent US20230263803A1, “METHODS OF PREVENTING OR TREATING COVID-19 AND RELATED VIRAL DISEASES OR DISORDERS” (KINARUS AG, priority 2020, published 2023).

Assays:
[1] = system: SARS-CoV-2B.1.1.7 variant; assay type: cell-based; settings: at the highest concentrations; Vero B4 cells, 72 hrs, qRT-PCR
[2] = system: SARS-CoV-2 B1.351 variant; assay type: cell-based; settings: at the highest concentrations; Vero B4 cells, 72 hrs, qRT-PCR

`Cn1c(=O)c(Oc2ccc(F)cc2F)cc2cnc(NC(CCO)CCO)nc21` [Pamapimod, 6-(2,4-Difluorophenoxy)-2-[3-hydroxy-1-(2-hydroxyethyl)-propylamino]-8-methyl-8H-pyrido[2,3-d]pyrimidin-7-one] was tested, and the “inhibition of viral shedding, B.1.1.7 variant” value [1] was greater than 90% and the “inhibition of viral shedding, B1.351 variant” value [2] was greater than 90%.
